Here are results for three molecules from article PMC12691779, “Creatine and Taurine as Novel Competitive Inhibitors of Acetylcholinesterase: A Biochemical Basis for Nutritional Modulation of Brain Function” (International Journal of Molecular Sciences, 2025).

As a reminder, the Km is the substrate concentration at which the rate is half of its maximum. Broadly, the Vmax is the top rate of the reaction or transport when substrate is in excess.

Data set [1] deals with Human acetylcholinesterase (AChE; EC 3.1.1.7) (Homo sapiens, UniProt P22303). The experiment in a line: modified Ellman assay with purified AChE, Lineweaver-Burk kinetics. It is filed as biochemical. (In general: In Ellman's method for cholinesterases, released thiocholine reacts with DTNB.)
Substrate in data set [2]: CC(=O)SCC[N+](C)(C)C
The experiment in a line: Km from modified Ellman assay, Lineweaver-Burk (enzyme only). It is filed as biochemical, Homo sapiens. The settings on record: active site (substrate). The text has this: Km from modified Ellman assay, Lineweaver-Burk (enzyme only) on Human acetylcholinesterase (AChE; EC 3.1.1.7) | The reaction system contained acetylthiocholine (ACth) as the substrate

Read-outs that look alike come from different tables or passages of the source.

On to `CN(CC(=O)O)C(=N)N` [CR, Creatine], for which, in data set [1] (read-out: Creatine 0.15 mM), the Ki is 199 ± 5.21 µM.

As for `NCCS(=O)(=O)O` [TA, Taurine], in data set [1] (read-out: Taurine 0.15 mM), the Ki was 274 ± 5.94 µM.

B1: Human acetylcholinesterase (AChE; EC 3.1.1.7) (Homo sapiens) (protein)
chain: EGREDAELLVTVRGGRLRGIRLKTPGGPVSAFLGIPFAEPPMGPRRFLPPEPKQPWSGVVDATTFQSVCYQYVDTLYPGFEGTEMWNPNRELSEDCLYLNVWTPYPRPTSPTPVLVWIYGGGFYSGASSLDVYDGRFLVQAERTVLVSMNYRVGAFGFLALPGSREAPGNVGLLDQRLALQWVQENVAAFGGDPTSVTLFGESAGAASVGMHLLSPPSRGLFHRAVLQSGAPNGPWATVGMGEARRRATQLAHLVGCPPGGTGGNDTELVACLRTRPAQVLVNHEWHVLPQESVFRFSFVPVVDGDFLSDTPEALINAGDFHGLQVLVGVVKDEGSYFLVYGAPGFSKDNESLISRAEFLAGVRVGVPQVSDLAAEAVVLHYTDWLHPEDPARLREALSDVVGDHNVVCPVAQLAGRLAAQGARVYAYVFEHRASTLSWPLWMGVPHGYEIEFIFGIPLDPSRNYTAEEKIFAQRLMRYWANFARTGDPNEPRDPKAPQWPPYTAGAQQYVSLDLRPLEVRRGLRAQACAFWNRFLPKLLSATDTLDEAERQWKAEFHRWSSYMVHWKNQFDHYSKQDRCSDL
Turning to B1, in data set [2], the Km was 1.73 ± 0.0147 µM and the Vmax was 131 µM/min.
